In patent US11802111B2, “Cyclobutyl amide monoacylglycerol lipase modulators” (Janssen Pharmaceutica NV, priority 2020, dated 2023):

Each compound was assayed against human MGL from HeLa cells (Homo sapiens (Human), UniProt Q99685) (assay: MGL in vitro activity assay ([glycerol-1,3-3H]-oleoyl glycerol hydrolysis, activated carbon filtration)). Settings: 300 nM [Glycerol-1,3-3H]-oleoyl glycerol, one hour.
Sequence of human MGL from HeLa cells (Q99685 whole entry): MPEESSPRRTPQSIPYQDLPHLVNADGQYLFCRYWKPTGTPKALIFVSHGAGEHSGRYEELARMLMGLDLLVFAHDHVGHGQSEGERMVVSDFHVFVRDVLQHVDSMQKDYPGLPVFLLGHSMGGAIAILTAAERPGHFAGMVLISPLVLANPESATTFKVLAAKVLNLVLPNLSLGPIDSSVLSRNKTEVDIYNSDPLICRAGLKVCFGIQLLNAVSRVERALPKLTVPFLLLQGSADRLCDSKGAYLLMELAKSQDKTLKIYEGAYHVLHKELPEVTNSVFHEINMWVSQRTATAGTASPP
Format: biochemical
Method in brief: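 Endogenous human MGL in HeLa cells/homogenates incubated 1 h with test compounds and 300 nM [glycerol-1,3-3H]-oleoyl glycerol. Released 3H-glycerol passing an activated carbon filter counted as activity; screening at 10 μM compound, top IC50 concentration set empirically.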
Work on `Cc1ccc(CC2CC3(CCN(C(=O)[C@H]4C[C@@](C)(O)C4)CC3)C2)cc1` [Example 173, ((1s,3s)-3-Hydroxy-3-methylcyclobutyl)(2-(4-methylbenzyl)-7-azaspiro[3.5]nonan-7-yl)methanone] yielded an IC50 of 28 nM. `Cc1ccccc1CC1CC2(C1)CN(C(=O)[C@H]1C[C@@](C)(O)C1)C2` [Example 184, ((1s,3s)-3-Hydroxy-3-methylcyclobutyl)(6-(2-methylbenzyl)-2-azaspiro[3.3]heptan-2-yl)methanone] showed an IC50 of 14 nM. `CC(C)c1ccc(CC2CC3(C2)CN(C(=O)[C@H]2C[C@@](C)(O)C2)C3)cc1` [Example 185, ((1s,3s)-3-Hydroxy-3-methylcyclobutyl)(6-(4-isopropylbenzyl)-2-azaspiro[3.3]heptan-2-yl)methanone] was tested, and the IC50 was 2.3 nM. `CC(C)c1cccc(CC2CC3(C2)CN(C(=O)[C@H]2C[C@@](C)(O)C2)C3)c1` [Example 186, ((1s,3s)-3-Hydroxy-3-methylcyclobutyl)(6-(3-isopropylbenzyl)-2-azaspiro[3.3]heptan-2-yl)methanone] gave an IC50 of 4.7 nM. Compound `CC(C)c1ccccc1CC1CC2(C1)CN(C(=O)[C@H]1C[C@@](C)(O)C1)C2` [Example 187, ((1s,3s)-3-Hydroxy-3-methylcyclobutyl)(6-(2-isopropylbenzyl)-2-azaspiro[3.3]heptan-2-yl)methanone] has an IC50 of 12 nM. `Cc1ccc(CC2CC3(C2)CN(C(=O)[C@H]2C[C@@](C)(O)C2)C3)cc1C` [Example 188, (6-(3,4-Dimethylbenzyl)-2-azaspiro[3.3]heptan-2-yl)((1s,3s)-3-hydroxy-3-methylcyclobutyl)methanone] gave an IC50 of 4.3 nM. Compound `Cc1ccc(CC2CC3(C2)CN(C(=O)[C@H]2C[C@@](C)(O)C2)C3)cc1C(F)(F)F` [Example 189, ((1s,3s)-3-Hydroxy-3-methylcyclobutyl)(6-(4-methyl-3-(trifluoromethyl)benzyl)-2-azaspiro[3.3]heptan-2-yl)methanone] has an IC50 of 3.5 nM. `CC(C)(C)c1ccnc(CC2CC3(C2)CN(C(=O)[C@H]2C[C@@](C)(O)C2)C3)c1` [Example 190, (6-((4-(tert-Butyl)pyridin-2-yl)methyl)-2-azaspiro[3.3]heptan-2-yl)((1s,3s)-3-hydroxy-3-methylcyclobutyl)methanone] was tested, and the IC50 was 73 nM. For `COc1cccc(CC2CC3(C2)CN(C(=O)[C@H]2C[C@@](C)(O)C2)C3)n1` [Example 191, ((1s,3s)-3-Hydroxy-3-methylcyclobutyl)(6-((6-methoxypyridin-2-yl)methyl)-2-azaspiro[3.3]heptan-2-yl)methanone], the IC50 was 159 nM. `COc1ccc(CC2CC3(C2)CN(C(=O)[C@H]2C[C@@](C)(O)C2)C3)cc1` [Example 192, ((1s,3s)-3-Hydroxy-3-methylcyclobutyl)(6-(4-methoxybenzyl)-2-azaspiro[3.3]heptan-2-yl)methanone] showed an IC50 of 22 nM. `C[C@]1(O)C[C@@H](C(=O)N2CC3(CC(Cc4cccc(C(F)(F)F)c4)C3)C2)C1` [Example 193, ((1s,3s)-3-Hydroxy-3-methylcyclobutyl)(6-(3-(trifluoromethyl)benzyl)-2-azaspiro[3.3]heptan-2-yl)methanone] gave an IC50 of 5.8 nM. Compound `C[C@]1(O)C[C@@H](C(=O)N2CC3(CC(Cc4cccc(OC(F)(F)F)c4)C3)C2)C1` [Example 194, ((1s,3s)-3-Hydroxy-3-methylcyclobutyl)(6-(3-(trifluoromethoxy)benzyl)-2-azaspiro[3.3]heptan-2-yl)methanone] has an IC50 of 4.9 nM. `C[C@]1(O)C[C@@H](C(=O)N2CC3(CC(Cc4ccc(C(F)(F)F)cc4)C3)C2)C1` [Example 195, ((1s,3s)-3-Hydroxy-3-methylcyclobutyl)(6-(4-(trifluoromethyl)benzyl)-2-azaspiro[3.3]heptan-2-yl)methanone] was tested, and the IC50 was 4.2 nM. For `C[C@]1(O)C[C@@H](C(=O)N2CC3(CC(Cc4ccccc4OC(F)(F)F)C3)C2)C1` [Example 196, ((1s,3s)-3-Hydroxy-3-methylcyclobutyl)(6-(2-(trifluoromethoxy)benzyl)-2-azaspiro[3.3]heptan-2-yl)methanone], the IC50 was 2.8 nM. `COc1cccc(CC2CC3(C2)CN(C(=O)[C@H]2C[C@@](C)(O)C2)C3)c1` [Example 197, ((1s,3s)-3-Hydroxy-3-methylcyclobutyl)(6-(3-methoxybenzyl)-2-azaspiro[3.3]heptan-2-yl)methanone] was tested, and the IC50 was 64 nM. For `C[C@]1(O)C[C@@H](C(=O)N2CC3(CC(Cc4ccc5ccccc5n4)C3)C2)C1` [Example 198, ((1s,3s)-3-Hydroxy-3-methylcyclobutyl)(6-(quinolin-2-ylmethyl)-2-azaspiro[3.3]heptan-2-yl)methanone], the IC50 was 56 nM. For `C[C@]1(O)C[C@@H](C(=O)N2CC3(CC(Cc4ccccc4C(F)(F)F)C3)C2)C1` [Example 199, ((1s,3s)-3-Hydroxy-3-methylcyclobutyl)(6-(2-(trifluoromethyl)benzyl)-2-azaspiro[3.3]heptan-2-yl)methanone], the IC50 was 4.1 nM. Work on `Cc1cc(CC2CC3(C2)CN(C(=O)[C@H]2C[C@@](C)(O)C2)C3)ccc1C1CC1` [Example 202, (6-(4-Cyclopropyl-3-methylbenzyl)-2-azaspiro[3.3]heptan-2-yl)((1s,3s)-3-hydroxy-3-methylcyclobutyl)methanone] yielded an IC50 of 0.6 nM. Work on `C[C@]1(O)C[C@@H](C(=O)N2CC3(CC(Cc4ccncc4)C3)C2)C1` [Example 206, ((1s,3s)-3-Hydroxy-3-methylcyclobutyl)(6-(pyridin-4-ylmethyl)-2-azaspiro[3.3]heptan-2-yl)methanone] yielded an IC50 of 1140 nM. `Cc1cccc(CC2CC3(C2)CN(C(=O)[C@H]2C[C@@](C)(O)C2)C3)c1C1CC1` [Example 207, (6-(2-Cyclopropyl-3-methylbenzyl)-2-azaspiro[3.3]heptan-2-yl)((1s,3s)-3-hydroxy-3-methylcyclobutyl)methanone] showed an IC50 of 1.7 nM. Compound `CC(C)(C)c1ccccc1CC1CC2(C1)CN(C(=O)[C@H]1C[C@@](C)(O)C1)C2` [Example 208, (6-(2-(tert-Butyl)benzyl)-2-azaspiro[3.3]heptan-2-yl)((1s,3s)-3-hydroxy-3-methylcyclobutyl)methanone] has an IC50 of 5.3 nM. `Cc1cccc(CC2CC3(C2)CN(C(=O)[C@H]2C[C@@](C)(O)C2)C3)c1C(F)(F)F` [Example 209, ((1s,3s)-3-Hydroxy-3-methylcyclobutyl)(6-(3-methyl-2-(trifluoromethyl)benzyl)-2-azaspiro[3.3]heptan-2-yl)methanone] showed an IC50 of 2.2 nM. For `CC(C)c1c(CC2CC3(C2)CN(C(=O)[C@H]2C[C@@](C)(O)C2)C3)cccc1C(F)(F)F` [Example 210, ((1s,3s)-3-Hydroxy-3-methylcyclobutyl)(6-(2-isopropyl-3-(trifluoromethyl)benzyl)-2-azaspiro[3.3]heptan-2-yl)methanone], the IC50 was 0.8 nM. Work on `Cc1ccc(C(F)(F)F)c(CC2CC3(C2)CN(C(=O)[C@H]2C[C@@](C)(O)C2)C3)c1` [Example 211, ((1s,3s)-3-Hydroxy-3-methylcyclobutyl)(6-(5-methyl-2-(trifluoromethyl)benzyl)-2-azaspiro[3.3]heptan-2-yl)methanone] yielded an IC50 of 4.1 nM. Work on `Cc1cc(CC2CC3(C2)CN(C(=O)[C@H]2C[C@@](C)(O)C2)C3)ccc1C(F)(F)F` [Example 212, ((1s,3s)-3-Hydroxy-3-methylcyclobutyl)(6-(3-methyl-4-(trifluoromethyl)benzyl)-2-azaspiro[3.3]heptan-2-yl)methanone] yielded an IC50 of 0.3 nM. For `Cc1ccc(CC2CC3(C2)CN(C(=O)[C@H]2C[C@@](C)(O)C2)C3)c(C(F)(F)F)c1` [Example 213, ((1s,3s)-3-Hydroxy-3-methylcyclobutyl)(6-(4-methyl-2-(trifluoromethyl)benzyl)-2-azaspiro[3.3]heptan-2-yl)methanone], the IC50 was 4.1 nM. For `Cn1nc(C(F)(F)F)cc1CC1CC2(C1)CN(C(=O)[C@H]1C[C@@](C)(O)C1)C2` [Example 214, ((1s,3s)-3-Hydroxy-3-methylcyclobutyl)(6-((1-methyl-3-(trifluoromethyl)-1H-pyrazol-5-yl)methyl)-2-azaspiro[3.3]heptan-2-yl)methanone], the IC50 was 417 nM. For `Cn1ncc2ccc(CC3CC4(C3)CN(C(=O)[C@H]3C[C@@](C)(O)C3)C4)cc21` [Example 215, ((1s,3s)-3-Hydroxy-3-methylcyclobutyl)(6-((1-methyl-1H-indazol-6-yl)methyl)-2-azaspiro[3.3]heptan-2-yl)methanone], the IC50 was 43 nM. With `COc1ccccc1CC1CC2(C1)CN(C(=O)[C@H]1C[C@@](C)(O)C1)C2` [Example 216, ((1s,3s)-3-Hydroxy-3-methylcyclobutyl)(6-(2-methoxybenzyl)-2-azaspiro[3.3]heptan-2-yl)methanone] the IC50 was 12 nM. For `COc1ccc(CC2CC3(C2)CN(C(=O)[C@H]2C[C@@](C)(O)C2)C3)c(C(F)(F)F)c1` [Example 217, ((1s,3s)-3-Hydroxy-3-methylcyclobutyl)(6-(4-methoxy-2-(trifluoromethyl)benzyl)-2-azaspiro[3.3]heptan-2-yl)methanone], the IC50 was 3.5 nM. For `C[C@]1(O)C[C@@H](C(=O)N2CC3(CC(Cc4cccc(C5CC5)c4)C3)C2)C1` [Example 218, (6-(3-Cyclopropylbenzyl)-2-azaspiro[3.3]heptan-2-yl)((1s,3s)-3-hydroxy-3-methylcyclobutyl)methanone], the IC50 was 6.3 nM. For `C[C@]1(O)C[C@@H](C(=O)N2CC3(CC(Cc4ccc(C5CC5)cc4)C3)C2)C1` [Example 219, (6-(4-Cyclopropylbenzyl)-2-azaspiro[3.3]heptan-2-yl)((1s,3s)-3-hydroxy-3-methylcyclobutyl)methanone], the IC50 was 1.2 nM. Compound `C[C@]1(O)C[C@@H](C(=O)N2CC3(CC(Cc4ccc(OC(F)(F)F)cc4)C3)C2)C1` [Example 220, ((1s,3s)-3-Hydroxy-3-methylcyclobutyl)(6-(4-(trifluoromethoxy)benzyl)-2-azaspiro[3.3]heptan-2-yl)methanone] has an IC50 of 1.1 nM. `C[C@]1(O)C[C@@H](C(=O)N2CC3(CC(Cc4ccc(OC(F)F)cc4)C3)C2)C1` [Example 221, (6-(4-(Difluoromethoxy)benzyl)-2-azaspiro[3.3]heptan-2-yl)((1s,3s)-3-hydroxy-3-methylcyclobutyl)methanone] was tested, and the IC50 was 5.1 nM.
